The values that follow are results of earlier work, collected in PMC7579232 (Current Clinical Pharmacology, 2020).

The conditions of series [1]: rabbits.
The conditions of series [2]: rats.

`Cc1ncc2n1-c1ccc(Cl)cc1C(c1ccccc1F)=NC2` [midazolam]: for the setting “oral midazolam, healthy volunteers”, the “Effect of pomegranate juice on Cmax and AUC” value is recorded as “did not affect”.

Take `C=CC[C@@H]1/C=C(\C)C[C@H](C)C[C@H](OC)[C@H]2O[C@@](O)(C(=O)C(=O)N3CCCC[C@H]3C(=O)O[C@H](/C(C)=C/[C@@H]3CC[C@@H](O)[C@H](OC)C3)[C@H](C)[C@@H](O)CC1=O)[C@H](C)C[C@@H]2OC` [tacrolimus]: the “Effect of co-administered pomegranate dietary products on drug concentration” value (a heart transplant patient) is reported as “increased”.

Regarding `CCOC(=O)C1=C(C)NC(C)=C(C(=O)OC)C1c1cccc([N+](=O)[O-])c1` (stereo not drawn) [nitrendipine], in series [1], the “Increase of area under the concentration-time curve by pomegranate juice” value is recorded as 2.03 fold and the “Increase of peak plasma concentration by pomegranate juice” value is recorded as 2 fold.

As for `NC(=O)N1c2ccccc2C=Cc2ccccc21` [carbamazepine], the “Effect of pomegranate juice on elimination half-life” value in series [2] is listed as “does not affect”. In series [2] (oral carbamazepine with pomegranate juice), the “Increase of AUC by pomegranate juice” value was “approximately 1.5 fold”.
